Results from publication PMC7497679, “Structure-based design, synthesis, and evaluation of the biological activity of novel phosphoroorganic small molecule IAP antagonists” (Investigational New Drugs, 2020).
Like-named read-outs stand apart in the source and are kept apart here.

What was measured:
UMUC-3 = assay: Antiproliferative activity, SRB method; assay type: cell-based, human; conditions: 72 h; for inhibition at 10 µM: Homo sapiens, UMUC3, 10 µM, read-out: mean proliferation inhibition at highest concentration used, UMUC-3
Excerpt: (§1) MDA-MB-231 (human breast cancer), MCF10A (human, nontumorigenic mammary gland epithelial cells), A549 (human nonsmall-cell lung cancer), UMUC-3 (human bladder cancer) and LoVo (human colon cancer) cell lines were obtained from the American Type Culture Collection (ATCC; Rockville, Maryland, USA). The MCF-7 cell line (human breast cancer) was obtained from the European Collection of Cell Cultures (ECACC; Salisbury, UK). All cell lines were maintained at the Hirszfeld Institute of Immunology and Experimental Therapy (HIIET), Wrocław, Poland. MDA-MB-231 cells were cultured in RPMI1640 medium (Thermo Fisher Scientific, Warszawa, Poland) supplemented with 2 mM L-glutamine, 1 mM sodium pyruvate, and 10% fetal bovine serum (all from Sigma-Aldrich, Poznań, Poland). The MCF10A cell line was cultured in Ham’s F12 medium with glutamine (Corning) supplemented with 5% (v/v) fetal bovine serum (FBS), 5% (v/v) horse serum, 10 µg/mL insulin, 0.05 µg/mL cholera toxin, 0.5 µg/mL hydrocortisone, and 20 ng/mL hEGF (all from Sigma-Aldrich). A549 and LoVo cells were cultured in a 1:1 (v/v) mixture of RPMI1640 and Opti-MEM (both from HIIET) supplemented with 5% (v/v) FBS and 2 mM L-glutamine. The UMUC-3 cell line was cultured in high glucose DMEM (Thermo Fisher Scientific) supplemented with 10% FBS and 2 mM Lglutamine. The MCF-7 line was cultured in Eagle’s minimal essential medium (EMEM; Thermo Fisher Scientific) supplemented with 10% (v/v) FBS, 2 mM L-glutamine, 1% (v/v) nonessential amino acids, and 8 µg/mL insulin (all from Sigma-Aldrich). All culture media contained 100 µg/mL streptomycin (Sigma-Aldrich) and 100 U/mL penicillin (Polfa Tarchomin SA, Warszawa, Poland). The cells were grown at 37 °C in a humid atmosphere saturated with 5% CO2.
(§2) Antiproliferative activity was assessed in six cell lines utilizing the sulforhodamine B (SRB) method. Briefly, cells were seeded in 96-well plates (Sarstedt, Warszawa, Poland) at a density of 5 × 10^3 cells/well, and after overnight incubation, the cells were exposed to compounds at various concentrations. After 72 h, the plates were fixed with 50% (v/v) TCA (all from Sigma-Aldrich), washed with tap water, and the precipitated proteins were labeled with 0.1% (w/v) SRB solution in 1% (v/v) AcOH. Next, the plates were washed with 1% (v/v) AcOH, and the remaining SRB dye was solubilized with 10 mM unbuffered TRIS solution. The absorbance was measured using a Biotek Hybrid H4 reader (BioTek Instruments, VT, USA) at 540 nm. Crude results were analyzed using a previously described method, and the results are expressed as the IC50 (compound concentration that reduced cell growth by 50%) compared to the vehicletreated control (0.1% (v/v) DMSO). The samples were analyzed in triplicate, and each experiment was repeated at least three times.

LoVo = assay: Antiproliferative activity, SRB method; assay type: cell-based, human; conditions: 72 h; for inhibition at 10 µM: Homo sapiens, LoVo, read-out: mean proliferation inhibition at highest concentration used, LoVo
Excerpt: as §1, §2

A549 = assay: Antiproliferative activity, SRB method; assay type: cell-based, human; conditions: 72 h; for inhibition at 10 µM: Homo sapiens, A549, 10 µM, read-out: mean proliferation inhibition at highest concentration used, A549
Excerpt: as §1, §2

MCF-10A = assay: Antiproliferative activity, SRB method; assay type: cell-based, human; conditions: 72 h; for inhibition at 10 µM: Homo sapiens, MCF-10A, read-out: mean proliferation inhibition at highest concentration used, MCF-10A
Excerpt: as §1, §2

MDA-MB-231 = assay: Antiproliferative activity, SRB method; assay type: cell-based, human; conditions: read-out: IC50 ± SD (n = 3) MDA-MB-231
Excerpt: as §1, §2

MCF-7 = assay: Antiproliferative activity, SRB method; assay type: cell-based, human; conditions: 72 h; for inhibition at 10 µM: Homo sapiens, MCF7, 10 µM, read-out: mean proliferation inhibition at highest concentration used, MCF-7
Excerpt: as §1, §2

XIAP BIR3 domain = molecular target: T1, XIAP BIR3 domain (Homo sapiens, UniProt P98170); assay: Fluorescence polarization inhibition (competition) assay; assay type: binding; conditions: for inhibition at 50 µM: 0.5 h, antagonist 50 µM, inhibition of protein-probe interaction; for Ki / EC50: XIAP BIR3 50 nM, fluorescent probe 4 2 nM
T1 construct: fluorescent probe 4 and the XIAP BIR3 domain (Sino Biological, Beijing, China) were used for all measurements; purchased Sino Biological, Beijing, China
Procedure: The fluorescence polarization assay was performed at r.t. in Corning 384-well black, polystyrene flat bottom plates (Corning, NY, USA) on a Synergy H4 Hybrid Reader (BioTek, Bad Friedrichshall, Germany). For fluorescence polarization measurements, (milipolarization units, mP) 484/20 nm excitation and 528/20 nm emission filters were selected. Phosphate buffer (pH 7.5) supplemented with γ-globulin (100 µg/mL) and NaN3 (0.02% w/v), fluorescent probe 4 and the XIAP BIR3 domain (Sino Biological, Beijing, China) were used for all measurements. All experiments were performed in duplicate. The obtained fluorescence polarization assay data were analyzed with Prism 5.0 Software (GraphPad Software, San Diego, ca.).
After a 15 min incubation at r.t., fluorescent probe 4 (2 nM) was added. The values were measured 30 min after the moment the probe was added. The assay was performed in phosphate buffer with a final DMSO concentration of 1.4% (v/v). […] In order to evaluate the quality and precision of the performed screening assay, we determined the Z´ factor as described by Zhang et al.. The obtained fluorescence polarization values were used to determine the percent inhibition, which was plotted as a function of the protein concentration. The EC50 and Ki values were calculated with GraphPad software (log(agonist) vs. response (variable slope) model) in combination with the web tool developed by Nikolovska-Coleska et al..
Fluorescence polarization inhibition assay and data analysis for 41m and 42m compounds was performed as described in the Material and Methods section of the manuscript. Briefly, 50 nM solution of the BIR3 XIAP protein in polarization buffer was added into phosphoroorganic compound solution (from 50 μM to 0.0537 nM). After 15 min incubation at r.t. the fluorescent probe 4 (2 nM) was added.
The values were read after 30 minutes from the moment the probe was added. The obtained fluorescence polarization values were used to determine the percentage of inhibition which was plotted as a function of the protein concentration (Supplementary Figure S4).
(1 picture or pasted object on this page, not shown here)

T1 sequence (P98170 252-356 limits assumed): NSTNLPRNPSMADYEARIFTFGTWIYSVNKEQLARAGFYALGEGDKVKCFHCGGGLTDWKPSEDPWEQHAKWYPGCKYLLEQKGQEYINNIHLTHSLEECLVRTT

| Structure (SMILES) | IC50 (UMUC-3; read-out: IC50 ± SD (n = 3) UMUC-3) [nM] | IC50 (LoVo; read-out: IC50 ± SD (n = 3) LoVo) [nM] | IC50 (A549; read-out: IC50 ± SD (n = 3) A549) [nM] | IC50 (MCF-10A; read-out: IC50 ± SD (n = 3) MCF-10A) [nM] | IC50 (MDA-MB-231; 72 h) [nM] | IC50 (MCF-7; read-out: IC50 ± SD (n = 3) MCF-7) [nM] | inhibition at 50 µM (XIAP BIR3 domain) [%] | Ki (XIAP BIR3 domain) [nM] | EC50 (XIAP BIR3 domain; read-out: EC50) [nM] | EC50 (XIAP BIR3 domain; read-out: log EC50 (converted)) [nM] | inhibition at 10 µM (UMUC-3) [%] | inhibition at 10 µM (LoVo) [%] | inhibition at 10 µM (A549) [%] | inhibition at 10 µM (MCF-10A) [%] | IC50 (MDA-MB-231; Homo sapiens, MDA-MB-231, 72 h) [nM] | inhibition at 10 µM (MCF-7) [%] |
| --- | --- | --- | --- | --- | --- | --- | --- | --- | --- | --- | --- | --- | --- | --- | --- | --- |
| [NH2][Pt]([NH2])([Cl])[Cl] [CDDP, cisplatin, reference compound] | 3730 ± 630 | 3900 ± 1300 | 1600 ± 400 | 6760 ± 1200 | 22100 ± 5260 | 5360 ± 1800 | – | – | – | – | – | – | – | – | – | – |
| CN[C@@H](C)C(=O)N[C@H](C(=O)N1CCC[C@H]1C(=O)NC(Cc1ccccc1)P(=O)(c1ccccc1)c1ccccc1)C(C)C (stereo partly drawn) [Compound 13] | – | – | – | – | – | – | 100 | 750 | 1530 | 1530 | 6 | 6 | 2 | 5 | 3390 ± 420 | 22 |
| CN[C@@H](C)C(=O)N[C@H](C(=O)N1CCC[C@H]1C(=O)NC(Cc1ccccc1)P(=O)(c1ccccc1)c1ccccc1)C1CCCCC1 (stereo partly drawn) [Compound 14] | – | – | – | – | – | – | 100 | 640 | 1310 | 1310 | 8 | 7 | 5 | 1 | 2720 ± 690 | 20 |
| CN[C@@H](C)C(=O)N[C@H](C(=O)N1CCC[C@H]1C(=O)Nc1snnc1-c1ccccc1)C1CCCCC1 [GDC-0152, reference compound] | – | – | – | – | – | – | – | – | 10 | – | 13 | 9 | 13 | 1 | 880 ± 210 | 18 |
| CN[C@@H](C)C(=O)N[C@H](C(=O)N1CCC[C@H]1c1nc(C(=O)c2ccc(F)cc2)cs1)C1CCCCC1 [LCL-161, reference compound] | – | – | – | – | – | – | – | – | – | – | 16 | 26 | 11 | 2 | 760 ± 230 | 19 |
